In patent US10087166B2, “Cyclic amine azaheterocyclic carboxamides” (Merck Patent GmbH, priority 2010, dated 2018):

Each compound was assayed against T1, P70S6K (Homo sapiens, UniProt P23443, T412E) (assay: P70S6K enzyme assay). Details: P70S6K T412E mutant 3 nM, 24 μM ATP, FITC-AHA-AKRRRLSSLRA-OH substrate, 90 min at 25° C.; read-out: IC50p70S6K.
T1 construct: purchased Millipore
Assay type: biochemical
Description: P70S6K inhibitor compounds are diluted and plated in 96 well plates. A reaction mixture including the following components is then added to the compound plate to initiate the enzyme reaction; P70S6K (3 nM, T412E mutant, Millipore) is mixed with 24 μM ATP in an assay buffer containing 100 mM Hepes (pH 7.5), 5 mM MgCl2, 1 mM DTT, 0.015% Brij and 1 μM of the substrate peptide FITC-AHA-AKRRRLSSLRA-OH (derived from the S6 ribosomal protein sequence, FITC=fluorescein isothiocyanate, AHA=6-aminohexanoic acid). The reaction is incubated for 90 min at 25° C., before the addition of 10 mM EDTA to stop the reaction. The proportion of substrate and product (phosphorylated) peptide is analyzed on a Caliper Life Sciences Lab Chip 3000, using a pressure of −1.4 psi, and upstream and downstream voltages of −3000 and −700 respectively. Product peaks are resolved before substrate peaks on the resulting chromatograms.
To assess the inhibitory potential of the compounds, IC50-values were determined, as shown in Chemical Synthesis section above.

T1 sequence (P23443 whole entry T412E): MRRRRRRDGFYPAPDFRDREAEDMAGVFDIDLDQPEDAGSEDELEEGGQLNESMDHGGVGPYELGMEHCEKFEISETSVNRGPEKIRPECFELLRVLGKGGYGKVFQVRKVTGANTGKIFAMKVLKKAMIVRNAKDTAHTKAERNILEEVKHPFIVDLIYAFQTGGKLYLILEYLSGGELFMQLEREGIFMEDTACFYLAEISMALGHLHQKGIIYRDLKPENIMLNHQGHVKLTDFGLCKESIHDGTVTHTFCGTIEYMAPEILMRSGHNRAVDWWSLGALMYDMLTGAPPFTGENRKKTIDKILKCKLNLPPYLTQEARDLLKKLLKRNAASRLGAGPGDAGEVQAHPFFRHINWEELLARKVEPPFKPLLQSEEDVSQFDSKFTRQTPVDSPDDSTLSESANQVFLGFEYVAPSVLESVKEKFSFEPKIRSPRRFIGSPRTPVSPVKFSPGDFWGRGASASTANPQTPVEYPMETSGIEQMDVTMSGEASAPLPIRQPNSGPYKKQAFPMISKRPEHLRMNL

| IC50 | Structure (SMILES) |
| --- | --- |
| 3 nM | NC(=O)c1cccc2c(N[C@H]3CNC[C@@H]3c3cccc(F)c3)ncnc12 (racemic) [compound 2, 4-((4-(3-fluorophenyl)pyrrolidin-3-yl)amino)quinazoline-8-carboxamide] |
| 4.9 nM | NC(=O)c1cccc2c(N[C@H]3CNC[C@@H]3c3ccccc3)ncnc12 (racemic) [compound 3, 4-((4-phenylpyrrolidin-3-yl)amino)quinazoline-8-carboxamide] |
| 1.3 nM | NC(=O)c1cccc2c(NC3CNCC3c3cccc(Cl)c3)ncnc12 (racemic) [compound 9, 4-((4-(3-chlorophenyl)pyrrolidin-3-yl)amino)quinazoline-8-carboxamide] |
| 7 nM | NC(=O)c1cccc2c(NC3CNCC3c3c(F)cccc3Cl)ncnc12 (racemic) [compound 10, 4-((4-(2-chloro-6-fluorophenyl)pyrrolidin-3-yl)amino)-quinazoline-8-carboxamide] |
| 23 nM | CN1CC(Nc2ncnc3c(C(N)=O)cccc23)C(c2cccc(F)c2)C1 (racemic) [compound 12, 4-((4-(3-fluorophenyl)-1-methylpyrrolidin-3-yl)amino)quinazoline-8-carboxamide] |
| 349 nM | Cc1cc(C(N)=O)c2ncnc(NC3CNCC3c3ccccc3)c2c1 (racemic) [compound 15, 6-methyl-4-((4-phenylpyrrolidin-3-yl)amino)quinazoline-8-carboxamide] |
| 6 nM | Cc1nc(NC2CNCC2c2ccccc2)c2cccc(C(N)=O)c2n1 (racemic) [compound 16, 2-methyl-4-((4-phenylpyrrolidin-3-yl)amino)quinazoline-8-carboxamide] |
| 6.3 nM | NC(=O)c1cccc2c(N[C@@H]3CNCC[C@H]3c3ccccc3)ncnc12 (racemic) [compound 27, 4-((4-phenylpiperidin-3-yl)amino)quinazoline-8-carboxamide] |
| 1.8 nM | NC(=O)c1cccc2c(N[C@@H]3CNCC[C@H]3c3cccc(F)c3)ncnc12 (racemic) [compound 28, 4-((4-(3-fluorophenyl)piperidin-3-yl)amino)quinazoline-8-carboxamide] |
| 2.1 nM | NC(=O)c1cccc2c(N[C@@H]3CNCC[C@H]3c3cccc(C(F)(F)F)c3)ncnc12 (racemic) [compound 30, 4-((4-(3-(trifluoromethyl)phenyl)piperidin-3-yl)amino)quinazoline-8-carboxamide] |
| 3.1 nM | Cc1cccc([C@@H]2CCNC[C@H]2Nc2ncnc3c(C(N)=O)cccc23)c1 (racemic) [compound 31, 4-((4-(m-tolyl)piperidin-3-yl)amino)quinazoline-8-carboxamide] |
| 3.2 nM | NC(=O)c1cccc2c(N[C@@H]3CNCC[C@H]3c3ccc(F)cc3)ncnc12 (racemic) [compound 32, 4-((4-(4-fluorophenyl)piperidin-3-yl)amino)quinazoline-8-carboxamide] |
| 1000 nM | Cc1ccc(C2CCN(C(=O)OCc3ccccc3)CC2Nc2ncnc3c(C(N)=O)cccc23)cc1F (racemic) [compound 35, Benzyl 3-((8-carbamoylquinazolin-4-yl)amino)-4-(3-fluoro-4-methylphenyl)piperidine-1-carboxylate] |
| 2.5 nM | Cc1nc(N[C@@H]2CNCC[C@H]2c2cccc(F)c2)c2cccc(C(N)=O)c2n1 (racemic) [compound 37, 4-((4-(3-fluorophenyl)piperidin-3-yl)amino)-2-methylquinazoline-8-carboxamide] |
| 1.7 nM | CCc1nc(N[C@@H]2CNCC[C@H]2c2cccc(F)c2)c2cccc(C(N)=O)c2n1 (racemic) [compound 38, 2-ethyl-4-((4-(3-fluorophenyl)piperidin-3-yl)amino)quinazoline-8-carboxamide] |
| 4.8 nM | CCc1nc(N[C@@H]2CNCC[C@H]2c2ccccc2)c2cccc(C(N)=O)c2n1 (racemic) [compound 39, 2-ethyl-4-((4-phenylpiperidin-3-yl)amino)quinazoline-8-carboxamide] |
| 6.4 nM | Cc1nc(N[C@@H]2CNCC[C@H]2c2ccccc2)c2cccc(C(N)=O)c2n1 (racemic) [compound 40, 2-methyl-4-((4-phenylpiperidin-3-yl)amino)quinazoline-8-carboxamide] |
| 1.9 nM | NC(=O)c1cccc2c(N[C@H]3CNC[C@@H]3c3cc(F)cc(C(F)(F)F)c3)ncnc12 (racemic) [compound 45] |
| 1.7 nM | NC(=O)c1cccc2c(N[C@H]3CNC[C@@H]3c3cccc(C(F)(F)F)c3)ncnc12 (racemic) [compound 48] |
| 6.5 nM | NC(=O)c1cccc2c(N[C@H]3CNC[C@@H]3c3ccc(C(F)(F)F)cc3)ncnc12 (racemic) [compound 52] |
| 9 nM | NC(=O)c1cccc2c(N[C@@H]3CNC[C@@H]3c3cccc(OC(F)(F)F)c3)ncnc12 (racemic) [compound 55] |
| 2.4 nM | NC(=O)c1cccc2c(N[C@H]3CNC[C@@H]3c3cccc(OC(F)(F)F)c3)ncnc12 (racemic) [compound 56] |
| 1.7 nM | NC(=O)c1cccc2c(N[C@H]3CNC[C@@H]3c3ccc(OC(F)(F)F)cc3)ncnc12 (racemic) [compound 59] |
| 3.2 nM | NC(=O)c1cccc2c(N[C@H]3CNC[C@@H]3c3ccc4ncccc4c3)ncnc12 (racemic) [compound 69] |
| 8.8 nM | Cc1cc([C@H]2CNC[C@@H]2Nc2ncnc3c(C(N)=O)cccc23)ccc1F (racemic) [compound 74] |
| 1.8 nM | NC(=O)c1cccc2c(N[C@H]3CNC[C@@H]3c3cccc(Br)c3)ncnc12 (racemic) [compound 85] |

| IC50 | Structure (SMILES) |
| --- | --- |
| 14 nM | N#Cc1cccc([C@@H]2CNC[C@@H]2Nc2ncnc3c(C(N)=O)cccc23)c1 (racemic) [compound 86] |
| 3.2 nM | NC(=O)c1cccc2c(N[C@H]3CNC[C@@H]3c3ccc4c(c3)CCO4)ncnc12 (racemic) [compound 89] |
| 2 nM | Cc1c(F)cccc1[C@H]1CNC[C@@H]1Nc1ncnc2c(C(N)=O)cccc12 (racemic) [compound 92] |
| 2.7 nM | Cc1nc(N[C@H]2CNC[C@@H]2c2ccccc2Cl)c2cccc(C(N)=O)c2n1 (racemic) [compound 98] |
| 0.088 nM | NC(=O)c1cccc2c(N[C@H]3CNC[C@@H]3c3ccc(Cl)c(F)c3)ncnc12 (racemic) [compound 99] |
| 1.4 nM | NC(=O)c1cccc2c(N[C@H]3CNC[C@@H]3c3ccc(F)c(Cl)c3)ncnc12 (racemic) [compound 100] |
| 2.9 nM | COc1ccc([C@H]2CNC[C@@H]2Nc2ncnc3c(C(N)=O)cccc23)cc1F (racemic) [compound 102] |
| 1.8 nM | Cc1nc(N[C@H]2CNC[C@@H]2c2ccc(Cl)c(F)c2)c2cccc(C(N)=O)c2n1 (racemic) [compound 103] |
| 420 nM | NC(=O)c1cccc2c(N[C@H]3CNC[C@@H]3c3cc(F)c(F)cc3F)ncnc12 (racemic) [compound 105, 4-(((3R,4S)-4-(2,4,5-trifluorophenyl)pyrrolidin-3-yl)amino)quinazoline-8-carboxamide] |
| 5.5 nM | CCc1nc(N[C@@H]2CNC[C@H]2c2cccc(F)c2)c2cccc(C(N)=O)c2n1 (racemic) [compound 107] |
| 2.1 nM | NC(=O)c1cccc2c(N[C@@H]3CNC[C@H]3c3cccc(Cl)c3F)ncnc12 (racemic) [compound 109] |
| 1.54 nM | NC(=O)c1cccc2c(N[C@H]3CNC[C@@H]3c3ccc4ccccc4c3)ncnc12 (racemic) [compound 110] |
| 7.5 nM | CS(=O)(=O)c1ccc([C@H]2CNC[C@@H]2Nc2ncnc3c(C(N)=O)cccc23)cc1 (racemic) [compound 111] |
| 1.5 nM | NC(=O)c1cccc2c(N[C@H]3CNC[C@@H]3c3cc(F)cc(Cl)c3)ncnc12 (racemic) [compound 114] |
| 4.1 nM | NC(=O)c1cccc2c(N[C@H]3CNC[C@@H]3c3cccc(F)c3F)ncnc12 (racemic) [compound 116] |
| 5.9 nM | NC(=O)c1cccc2c(N[C@H]3CNC[C@@H]3c3cccc(N4CCCC4)c3)ncnc12 (racemic) [compound 117, 4-(((3R,4S)-4-(3-(pyrrolidin-1-yl)phenyl)pyrrolidin-3-yl)amino)quinazoline-8-carboxamide] |
| 15 nM | NC(=O)c1cccc2c(N[C@H]3CNC[C@@H]3c3ccc(F)c(-c4cccnc4)c3)ncnc12 (racemic) [compound 119] |
| 1.4 nM | NC(=O)c1cccc2c(N[C@H]3CNC[C@@H]3c3ccc(-c4ccccc4)c(F)c3)ncnc12 (racemic) [compound 120] |
| 6 nM | NC(=O)c1cccc2c(N[C@H]3CNC[C@@H]3c3ccc(-c4cccnc4)c(F)c3)ncnc12 (racemic) [compound 121] |
| 2.3 nM | NC(=O)c1cccc2c(N[C@@H]3CNCC[C@H]3c3cc(F)cc(F)c3)ncnc12 (racemic) [compound 123] |
| 22 nM | CN1CC[C@@H](c2ccccc2)[C@H](Nc2ncnc3c(C(N)=O)cccc23)C1 (racemic) [compound 124] |
| 3.9 nM | CCc1nc(N[C@@H]2CNCC[C@H]2c2cccc(C(F)(F)F)c2)c2cccc(C(N)=O)c2n1 (racemic) [compound 125] |
| 4.5 nM | COc1cccc([C@@H]2CCNC[C@H]2Nc2nc(C)nc3c(C(N)=O)cccc23)c1 (racemic) [compound 126] |
| 2 nM | NC(=O)c1cccc2c(N[C@@H]3CNCC[C@H]3c3ccc(C(F)(F)F)cc3)ncnc12 (racemic) [compound 127] |
| 5.4 nM | Cc1nc(N[C@@H]2CNCC[C@H]2c2ccc(F)cc2)c2cccc(C(N)=O)c2n1 (racemic) [compound 132] |
